40 compounds from ChEMBL document CHEMBL1156829 (Proc Natl Acad Sci U S A, 2008) can be followed below.

The subject of data set [1] is Plasmodium falciparum. Kind of data set: NOVARTIS: Inhibition of Plasmodium falciparum W2 (drug-resistant) proliferation in erythrocyte-based infection assay. It is filed as functional, organism-based. The settings on record: Plasmodium falciparum, W2; read-out: EC50.
Data set [2] in a line: NOVARTIS: Cytotoxicity against human hepatocellular carcinoma cell line (Huh7). The class given is toxicity, cell-based, Huh-7. The settings on record: Huh7 cells (hepatocellular carcinoma cell line).
Data set [3] concerns Plasmodium falciparum. Kind of data set: NOVARTIS: Inhibition of Plasmodium falciparum 3D7 (drug-susceptible) proliferation in erythrocyte-based infection assay. The settings on record: Plasmodium falciparum, 3D7. The class given is functional, organism-based.

Consider `COc1cc(Nc2cncc(-c3ccc(C(N)=O)cc3)n2)cc(OC)c1OC`, for which the EC50 in data set [1] was 50.1 nM; in data set [3], 29.5 nM. The compound further came in with a CC50 in data set [2] of 25300 nM.
Turning to `CCC(CO)NCC(O)Cn1c2ccc(Cl)cc2c2cc(Cl)ccc21` (stereo not given), the figures for the 50% effective concentration (EC50) in data set [1] and in data set [3] were 40.6 nM and 368 nM, respectively. Besides, in data set [2], the CC50 came out at 20100 nM.
With `C[n+]1ccc(C=Cc2ccc(Br)cc2)cc1`, the 50% effective concentration (EC50) turned out to be 205 nM in data set [1] and 638 nM in data set [3]. In addition, the CC50 in data set [2] is > 100000 nM.
As for `NC1=NC(c2ccccc2)N(c2ccccc2)C(N)=N1` (stereo not given), the values for the EC50 in data set [1] and in data set [3] were 204 nM and 82.3 nM, respectively. Moreover, the CC50 in data set [2] is > 100000 nM.
The matching figures for `OC(CNC1CCCCC1)Cn1c2ccc(Cl)cc2c2cc(Cl)ccc21` (stereo not given): 116 nM, 333 nM and 57300 nM.
Taken in the same sequence, the figures for `Cc1ccc(-c2c[n+](Cc3ccc(Cl)cc3)c3n2CCC3)cc1` were 153 nM, 373 nM and > 75700 nM.
Taken in the same sequence, the figures for `CC(=O)NCCc1nc2ccccc2n1Cc1ccc(C(C)C)cc1` were 98.1 nM, 764 nM and 48700 nM.
For the compound `COc1ccc(-c2c[n+](CC(=O)c3ccc(C)cc3)c3n2CCC3)cc1`, the results for the EC50 in data set [1] and in data set [3] were 200 nM and 745 nM, respectively. In addition, the 50% cytotoxic concentration (CC50) in data set [2] was > 100000 nM.
Consider `Cc1ccc(-n2c(SCc3ccc(F)cc3)nnc2C(Cc2ccccc2)NC(=O)NC(C)(C)C)cc1` (stereo not given), for which the results for the 50% effective concentration (EC50) in data set [1] and in data set [3] were 125 nM and 330 nM, respectively. In data set [2], the CC50 is > 62300 nM.
Taken in the same sequence, the figures for `CCn1c2ccccc2[n+]2c(C)cc(C)nc12` were 199 nM, 266 nM and > 100000 nM.
In the case of `CCCOC(=O)C1=C(C)NC2=C(C(=O)CC(c3ccc(Cl)cc3)C2)C1c1ccc(Br)cc1` (stereo not given), the EC50 is 198 nM in data set [1] and 498 nM in data set [3]. Further, the CC50 in data set [2] was > 100000 nM.
The matching figures for `CSCCC(C(=O)NCC(=O)O)N1C(=O)c2cc(NC(C)=O)ccc2NC(=O)[C@@H]1c1ccccc1` (stereo not given in full): 15.3 nM, > 1250 nM and > 7760 nM.
Taken in the same sequence, the figures for `O=c1c(-c2ccc(Cl)cc2Cl)c(C(F)(F)F)oc2c(CN3CCCCC3)c(O)ccc12` were 198 nM, 994 nM and > 100000 nM.
The matching figures for `COCCNC(=O)CN1C(=O)CC(C)(C)Sc2ccccc21`: > 19.8 nM, > 1250 nM and > 10000 nM.
As to `CCOc1ccc(Nc2cc(C)nc3ccc(OCC)cc23)cc1`, the EC50 in data set [1] was 20.3 nM; in data set [3], > 1250 nM. For the same compound, in data set [2], the 50% cytotoxic concentration (CC50) was > 10000 nM.
Take `Cc1ccnc(NC(c2ccc(Cl)cc2Cl)c2ccc3cccnc3c2O)c1` (stereo not given): the EC50 in data set [1] turned out to be 120 nM; in data set [3], 296 nM. The CC50 in data set [2] is 60100 nM.
Taken in the same sequence, the figures for `CCOC(=O)c1cnc2ccc(OCC)cc2c1NCCCN(CC)CC` were 140 nM, 117 nM and 70100 nM.
`CCOC(=O)C1(Cc2ccc(OC)cc2)CCN(C(=O)c2scc3c2OCCO3)CC1`: the values for the EC50 in data set [1] and in data set [3] were 199 nM and 264 nM, respectively. For the same compound, the CC50 in data set [2] is > 100000 nM.
The matching figures for `O=c1c2ccccc2[nH]c2ccc(F)cc12`: 208 nM, 186 nM and > 100000 nM.
The matching figures for `CCC(=O)NC(c1ccccc1Cl)c1cc(Cl)c2cccnc2c1O` (stereo not given): 73.6 nM, 232 nM and 35400 nM.
For the compound `Cc1cc(N2CCN(C3CCCCC3)CC2)n2c(nc3ccccc32)c1C#N`, the EC50 in data set [1] is 203 nM; in data set [3], 63.5 nM. Also, the CC50 in data set [2] was > 100000 nM.
For the compound `CN(CCCNc1ccnc2cc(Cl)ccc12)C(=O)CSc1ccccc1`, the EC50 in data set [1] came to 20.3 nM; in data set [3], 7.17 nM. Also, in data set [2], the half-maximal cytotoxic concentration (CC50) was > 10000 nM.
Taken in the same sequence, the figures for `Nc1cc(C(=O)Nc2ccc(C3=NCCN3)cc2)ccc1C(=O)Nc1ccc(C2=NCCN2)cc1` were 179 nM, 290 nM and 90600 nM.
For the compound `CCN(CC)CCCNc1ccnc2cc3ccccc3cc12`, the EC50 in data set [1] stood at 51.8 nM; in data set [3], 33.8 nM. The compound further had a CC50 in data set [2] of 26200 nM.
The matching figures for `Cc1cc(Nc2cccc([N+](=O)[O-])c2)nc2cc(O)ccc12`: 75.1 nM, 672 nM and 36300 nM.
The matching figures for `Cc1ccc(NC(c2ccccc2)(c2ccccc2)c2ccccc2)cc1C`: 207 nM, 439 nM and > 100000 nM.
Take `CC(=NNc1nc(-c2ccccc2O)nc2ccccc12)c1ccccc1O`: the EC50 was found to be 206 nM in data set [1] and 742 nM in data set [3]. Also, the CC50 in data set [2] is > 100000 nM.
The matching figures for `COC(=O)C1=C(C)NC2=C(C(=O)CC(c3ccccc3)C2)C1c1cc(C)sc1SC` (stereo not given): 205 nM, 671 nM and > 100000 nM.
The matching figures for `CC(=O)N(C1=C(N2CCCCC2)C(=O)c2ccccc2C1=O)c1ccc(F)c(F)c1`: 94.7 nM, 238 nM and 47700 nM.
With `Cc1ccn2c(NC(C)(C)CC(C)(C)C)c(-c3ccccc3OC(=O)c3ccc(C(F)(F)F)cc3)nc2c1`, the figures for the EC50 in data set [1] and in data set [3] were 19.9 nM and 847 nM, respectively. In addition, the CC50 in data set [2] was > 10000 nM.
The matching figures for `COc1ccc(C2CC(=O)C3=C(C2)NC(C)=C(C(=O)OC(C)C)C3c2cccc(Cl)c2)cc1OC` (stereo not given): 31.8 nM, 71.3 nM and 16000 nM.
As for `c1ccc(-c2nn(-c3ccccc3)[n+](-c3ccccc3)n2)cc1`, the EC50 in data set [1] came out at 207 nM; in data set [3], 296 nM. In addition, the CC50 in data set [2] was > 100000 nM.
The matching figures for `Oc1ccc(-c2ccccc2)cc1CN1CCC(c2ccccc2)CC1`: 204 nM, 2420 nM and > 100000 nM.
The matching figures for `N=c1c2c(n(Cc3ccc(F)cc3)c3c1CCC3)CCC2`: 202 nM, 266 nM and > 100000 nM.
Taken in the same sequence, the figures for `CCOC(=O)c1ccc(Nc2nc(N)c3cc(OC)c(OC)cc3n2)cc1` were 200 nM, 482 nM and > 100000 nM.
With `COc1ccc(C2=C(Nc3ccc(Br)c(C)c3)c3ccccc3C2=O)cc1`, the EC50 was 202 nM in data set [1] and 185 nM in data set [3]. Besides, the CC50 in data set [2] was > 100000 nM.
The matching figures for `COc1ccc(N=Nc2nc3ccc(Br)cc3n2C)cc1`: 199 nM, 197 nM and > 100000 nM.
`OC(CN1CCN(Cc2ccccc2)CC1)Cn1c2ccc(Br)cc2c2cc(Br)ccc21` (stereo not given): the concentration giving a half-maximal response (EC50) in data set [1] worked out at 57.3 nM; in data set [3], 296 nM. The CC50 in data set [2] came out at 29000 nM.
The matching figures for `NCC(=O)N1CCn2c(nc(-c3ccccc3)c2Nc2ccc3c(c2)OCO3)C1`: 198 nM, 162 nM and > 100000 nM.
`Cc1ccn2c(NC(C)(C)CC(C)(C)C)c(-c3ccccc3OC(=O)CCCCl)nc2c1`: the EC50 in data set [1] worked out at 20.2 nM; in data set [3] it was 753 nM. Besides, the half-maximal cytotoxic concentration (CC50) in data set [2] is > 10000 nM.
